In the NIST ThermoML archive (doi:10.1021/je700321s):
± gives the expanded uncertainty stated by the source.

Assay: xn = mol fraction of the nth substance listed
Details: Liquid, Vibrating tube method

CC(C)O [propan-2-ol] + O=C=O
mass density (323.07 K, 6029 kPa, x2 = 0.2003): 778.3 ± 0.8 kg/m3
mass density (323.07 K, 6513 kPa, x2 = 0.2003): 779 ± 0.8 kg/m3
mass density (323.07 K, 7000 kPa, x2 = 0.2003): 779.7 ± 0.8 kg/m3
mass density (323.07 K, 7519 kPa, x2 = 0.2003): 780.5 ± 0.8 kg/m3
mass density (323.07 K, 8013 kPa, x2 = 0.2003): 781.1 ± 0.8 kg/m3
mass density (323.07 K, 8543 kPa, x2 = 0.2003): 781.8 ± 0.8 kg/m3
mass density (323.07 K, 9139 kPa, x2 = 0.2003): 782.5 ± 0.8 kg/m3
mass density (323.07 K, 9497 kPa, x2 = 0.2003): 783 ± 0.8 kg/m3
mass density (323.07 K, 10068 kPa, x2 = 0.2003): 783.8 ± 0.8 kg/m3
mass density (332.97 K, 9739 kPa, x2 = 0.7943): 686.8 ± 0.8 kg/m3
mass density (332.97 K, 9804 kPa, x2 = 0.7943): 689.2 ± 1.1 kg/m3
mass density (332.97 K, 9901 kPa, x2 = 0.7943): 691.4 ± 1.2 kg/m3
mass density (332.97 K, 10001 kPa, x2 = 0.7943): 693.5 ± 1.4 kg/m3
mass density (332.97 K, 10101 kPa, x2 = 0.7943): 695.6 ± 1.6 kg/m3
mass density (332.97 K, 10201 kPa, x2 = 0.7943): 697.8 ± 1.9 kg/m3
mass density (332.97 K, 10302 kPa, x2 = 0.7943): 699.9 ± 2.1 kg/m3
mass density (332.97 K, 10404 kPa, x2 = 0.7943): 701.7 ± 1 kg/m3
mass density (332.97 K, 10507 kPa, x2 = 0.7943): 703.7 ± 1.5 kg/m3
mass density (332.97 K, 10606 kPa, x2 = 0.7943): 705.4 ± 1.8 kg/m3
mass density (332.97 K, 10808 kPa, x2 = 0.7943): 708.9 ± 1.3 kg/m3
mass density (332.97 K, 11007 kPa, x2 = 0.7943): 712 ± 1 kg/m3
mass density (332.97 K, 11204 kPa, x2 = 0.7943): 715 ± 0.9 kg/m3
mass density (332.97 K, 11404 kPa, x2 = 0.7943): 717.8 ± 0.9 kg/m3
mass density (332.97 K, 11607 kPa, x2 = 0.7943): 720.5 ± 0.9 kg/m3
mass density (332.97 K, 11805 kPa, x2 = 0.7943): 722.9 ± 0.9 kg/m3
mass density (332.97 K, 12004 kPa, x2 = 0.7943): 725.3 ± 0.8 kg/m3
mass density (332.99 K, 2861 kPa, x2 = 0.139): 759.8 ± 0.8 kg/m3
mass density (332.99 K, 3000 kPa, x2 = 0.139): 760 ± 0.8 kg/m3
mass density (332.99 K, 3297 kPa, x2 = 0.139): 760.4 ± 0.8 kg/m3
mass density (332.99 K, 3495 kPa, x2 = 0.139): 760.7 ± 0.8 kg/m3
mass density (332.99 K, 4008 kPa, x2 = 0.139): 761.5 ± 0.8 kg/m3
mass density (332.99 K, 4509 kPa, x2 = 0.139): 762.2 ± 0.8 kg/m3
mass density (332.99 K, 5030 kPa, x2 = 0.139): 762.8 ± 0.8 kg/m3
mass density (332.99 K, 6502 kPa, x2 = 0.139): 764.9 ± 0.8 kg/m3
mass density (332.99 K, 7005 kPa, x2 = 0.139): 765.6 ± 0.8 kg/m3
mass density (332.99 K, 7501 kPa, x2 = 0.139): 766.3 ± 0.8 kg/m3
mass density (332.99 K, 8010 kPa, x2 = 0.139): 766.9 ± 0.8 kg/m3
mass density (332.99 K, 8521 kPa, x2 = 0.139): 767.6 ± 0.8 kg/m3
mass density (332.99 K, 9040 kPa, x2 = 0.139): 768.3 ± 0.8 kg/m3
mass density (332.99 K, 9511 kPa, x2 = 0.139): 768.8 ± 0.8 kg/m3
mass density (332.99 K, 9974 kPa, x2 = 0.139): 769.5 ± 0.8 kg/m3
mass density (332.99 K, 10561 kPa, x2 = 0.9492): 502.4 ± 1.2 kg/m3
mass density (332.99 K, 10601 kPa, x2 = 0.9492): 506.6 ± 1.2 kg/m3
mass density (332.99 K, 10709 kPa, x2 = 0.9492): 517.4 ± 1.1 kg/m3
mass density (332.99 K, 10810 kPa, x2 = 0.9492): 526.9 ± 1 kg/m3
mass density (332.99 K, 10910 kPa, x2 = 0.9492): 536.2 ± 1 kg/m3
mass density (332.99 K, 11209 kPa, x2 = 0.9492): 560.9 ± 1 kg/m3
mass density (332.99 K, 11503 kPa, x2 = 0.9492): 580 ± 1 kg/m3
mass density (332.99 K, 11803 kPa, x2 = 0.9492): 596 ± 0.9 kg/m3
mass density (332.99 K, 12102 kPa, x2 = 0.9492): 611.4 ± 0.9 kg/m3
mass density (332.99 K, 12404 kPa, x2 = 0.9492): 624.7 ± 0.9 kg/m3
mass density (332.99 K, 12705 kPa, x2 = 0.9492): 635.9 ± 0.9 kg/m3
mass density (332.99 K, 13010 kPa, x2 = 0.9492): 645.6 ± 0.9 kg/m3
mass density (332.99 K, 13302 kPa, x2 = 0.9492): 654.5 ± 0.9 kg/m3
mass density (332.99 K, 13603 kPa, x2 = 0.9492): 663.6 ± 0.9 kg/m3
mass density (332.99 K, 13906 kPa, x2 = 0.9492): 671.7 ± 0.9 kg/m3
mass density (332.99 K, 14213 kPa, x2 = 0.9492): 678.9 ± 0.9 kg/m3
mass density (332.99 K, 14513 kPa, x2 = 0.9492): 684.7 ± 0.8 kg/m3
mass density (333.02 K, 7301 kPa, x2 = 0.4248): 770.1 ± 0.8 kg/m3
mass density (333.02 K, 7408 kPa, x2 = 0.4248): 770.5 ± 0.8 kg/m3
mass density (333.02 K, 7506 kPa, x2 = 0.4248): 770.6 ± 0.8 kg/m3
mass density (333.02 K, 7613 kPa, x2 = 0.4248): 771 ± 0.8 kg/m3
mass density (333.02 K, 7806 kPa, x2 = 0.4248): 771.4 ± 0.8 kg/m3
mass density (333.02 K, 8005 kPa, x2 = 0.4248): 772 ± 0.8 kg/m3
mass density (333.02 K, 8209 kPa, x2 = 0.4248): 772.6 ± 0.8 kg/m3
mass density (333.02 K, 8226 kPa, x2 = 0.6086): 753.6 ± 0.8 kg/m3
